Results from patent US11207299B2, “Biphenyl sulfonamide compounds for the treatment of type IV collagen diseases” (Travere Therapeutics, Inc., priority 2018, dated 2021).
“Also recorded” adds a separate entry of the source. Marks after values point to notes of the source that are not given here.

Assays:
[1] = test system: laminin α2 in stria of Alport mice; assay: Immunofluorescence of laminin α2 in stria of Alport mice; type: in vivo, mouse; conditions: losartan-treated Alport mice (10 mg/kg), early intervention study
Method: In the pilot study, designed to determine an optimal efficacious dose of sparsentan, Alport mice (3-4 per group) were dosed with vehicle (0.5% methylcellulose 4000 cps/0.25% Tween® 80 in distilled water) or sparsentan at 60 mg/kg or 200 mg/kg from 3 to 7 weeks of age for 28 days. Although 200 mg/kg sparsentan was efficacious in the pilot study, BUN levels were higher than those of Alport mice dosed with 60 mg/kg sparsentan (Table 1; FIG. 2A; FIG. 2B). This observation led to the selection of a 120 mg/kg dose of sparsentan to take forward into the early intervention study. During the pilot study, blood pressure (BP) was measured weekly using the CODA2 tail cuff system. […]
For the hearing study, wild-type or Alport mice were treated according to daily from 3-8.5 weeks of age by oral gavage with vehicle (0.5% methylcellulose 4000 cps/0.25% Tween® 80 in distilled water) or 120 mg/kg sparsentan or losartan at 20 mg/kg by oral gavage from 3-4 weeks of age (during weaning) and 10 mg/kg in drinking water from 4-7 weeks of age (n=5). The progression of Alport disease was assessed at 7 weeks of age by the amount of proteinuria (via urinalysis reagent strips—data not shown). […] Hearing ability and sensitivity to noise were assessed between 7 and 8 weeks of age by Auditory Brainstem Response (ABR), pre-noise exposure. […]

[2] = test system: autosomal Alport mice (COL4A3^−/−); assay: Hearing study in Alport mice (ABR, noise exposure, strial capillary basement membrane TEM); type: in vivo, mouse
Text: (§1) Vehicle or sparsentan was given daily by oral gavage to autosomal Alport mice (COL4A3^−/−) on the 129/Sv background (male and female) in five separate studies: a pilot study, an early intervention study (treated from 3-7 weeks of age), a late intervention study (treated from 5-7 weeks of age after the onset of glomerular (GM) changes), a lifespan study, and a hearing study (FIG. 1). The early intervention, late intervention, lifespan, and hearing studies also included mice treated with a comparator, losartan, which was given orally at 3-4 weeks of age in the early intervention study, in drinking water at 4-7 weeks of age in the early intervention study, and in drinking water at 5-7 weeks in the late intervention study.
(§2) Efficacy renal endpoints included blood urea nitrogen (BUN), proteinuria (urine protein to creatinine ratio, or UP/C), glomerulosclerosis, tubulointerstitial fibrosis, leucocyte infiltration, and glomerular basement morphology (GBM) using transmission electron microscopy (TEM). Endpoints in the inner ear included auditory brain stem response (ABR) threshold as a measure of noise-induced hearing loss, strial capillary basement membrane thickness, and inner ear pathology by TEM.
For the hearing study, wild-type or Alport mice were treated according to daily from 3-8.5 weeks of age by oral gavage with vehicle (0.5% methylcellulose 4000 cps/0.25% Tween® 80 in distilled water) or 120 mg/kg sparsentan or losartan at 20 mg/kg by oral gavage from 3-4 weeks of age (during weaning) and 10 mg/kg in drinking water from 4-7 weeks of age (n=5). The progression of Alport disease was assessed at 7 weeks of age by the amount of proteinuria (via urinalysis reagent strips—data not shown). Strial capillary basement membrane (SCBM) width was analyzed by transmission electron microscopy (TEM), and accumulation of extracellular matrix (ECM) in SCBM was determined by immunofluorescence (IF) microscopy using an antibody to laminin α2. Hearing ability and sensitivity to noise were assessed between 7 and 8 weeks of age by Auditory Brainstem Response (ABR), pre-noise exposure. A subset of each treatment group was then exposed to a metabolic noise stress for 10 hours. Mice receiving the noise treatment were randomly selected for overstimulation with a 106 dB sound pressure level (SPL), narrow band noise (8-16 kHz) for 10 hours, usually 10 PM to 8 AM. The noise exposure was conducted in a sound-isolation booth. A speaker was suspended from the ceiling. Wire cages with individual compartments were located midway between the floor and speaker. Mice were hydrated prior to placement in the cage and were provided free access to food. The noise exposure occurred at 8 weeks of age. The amount of hearing loss caused by the metabolic noise exposure was determined 5 days post-exposure.

[3] = test system: autosomal Alport mice (COL4A3^−/−); assay: Lifespan study in Alport mice; type: in vivo, mouse; conditions: dosing as in early intervention study, continued until 10% loss of peak body weight; P<0.05
Text: as §1
In the lifespan study, Alport mice (n=10) were dosed using the same methodology as in the early intervention study, except that dosing was continued until mice had lost 10% of their peak body weight, after which they were euthanized.
For the pilot, early intervention, late intervention, and lifespan studies, spot urine was sampled pre-study and weekly during treatment and analyzed for protein (UP) and creatinine (C) to determine proteinuria (UP/C). At the end of each study the animals were euthanized, blood samples were taken, BUN was measured from serum, and kidneys were harvested for structural and immuno-fluorescent measurements. Glomerulosclerosis was assessed by immunofluorescence (IF) using an antibody to fibronectin (FN). Visual counting of the number of sclerotic glomeruli as a proportion of the total number of glomeruli per slide was used to calculate the percentage of sclerotic glomeruli. Sections were co-stained with an anti-CD45 antibody to indicate leucocyte infiltration. Tubulointerstitial fibrosis was determined by IF of kidney sections using an antibody to collagen 1 (COL1). Tubulointerstitial fibrosis (TIF) scoring was conducted by visual assessment of the COL1 positive area as a percentage of the total cortical area and was performed blinded. […]

[4] = test system: autosomal Alport mice (COL4A3^−/−); assay: Early intervention study in Alport mice (treated from 3-7 weeks of age); type: in vivo, mouse
Text: as §1, §2
In the early intervention study, wild-type and Alport mice were dosed daily by oral gavage with vehicle or sparsentan at 120 mg/kg from 3 to 7 weeks of age (7-8 mice per group), or with losartan at 20 mg/kg by oral gavage from 3-4 weeks of age (during weaning) and 10 mg/kg in drinking water from 4-7 weeks of age.
(§3) For the pilot, early intervention, late intervention, and lifespan studies, spot urine was sampled pre-study and weekly during treatment and analyzed for protein (UP) and creatinine (C) to determine proteinuria (UP/C). At the end of each study the animals were euthanized, blood samples were taken, BUN was measured from serum, and kidneys were harvested for structural and immuno-fluorescent measurements. Glomerulosclerosis was assessed by immunofluorescence (IF) using an antibody to fibronectin (FN). Visual counting of the number of sclerotic glomeruli as a proportion of the total number of glomeruli per slide was used to calculate the percentage of sclerotic glomeruli. Sections were co-stained with an anti-CD45 antibody to indicate leucocyte infiltration. Tubulointerstitial fibrosis was determined by IF of kidney sections using an antibody to collagen 1 (COL1). Tubulointerstitial fibrosis (TIF) scoring was conducted by visual assessment of the COL1 positive area as a percentage of the total cortical area and was performed blinded. The fibrosis scoring (“Fibrosis Score”) was categorized according to visual judgment of percentage of total cortical area, as: 0=<5%, 1=5-10%, 2=10-25%, 3=25-50%, 4=50-75%, or 5=75-100%. Ultrastructural changes in GBM and podocyte morphology were observed using transmission electron microscopy (TEM).

[5] = test system: autosomal Alport mice (COL4A3^−/−); assay: Late intervention study in Alport mice (treated from 5-7 weeks of age); type: in vivo, mouse
Text: as §1, §2
In the late intervention study, wild-type or Alport mice (8 mice per group) were dosed for 14 days according to the same methods used in the early intervention study but beginning at 5 weeks of age, i.e., dosed with vehicle, 120 mg/kg of sparsentan, or 10 mg/kg losartan starting at 5 weeks of age for 14 days. In this study, untreated Alport mice at 5 weeks of age were also used as baseline controls.
as §3
For a baseline comparison for late intervention, glomerulosclerosis and fibrosis were determined in kidney samples taken from 5-week-old untreated Alport mice.

[6] = test system: murine models of Alport syndrome; conditions: cited from earlier work; for Glomerulosclerosis and interstitial fibrosis in murine models of Alport syndrome: literature (Dufek et al. 2016; Gross et al. 2003)
[7] = Alport mice, losartan 20/10 mg/kg, at 7 wk of age, mean ± SD
[8] = Alport mice late intervention, losartan 10 mg/kg, mean ± SD

In the case of `CCCCc1nc(Cl)c(CO)n1Cc1ccc(-c2ccccc2-c2nnn[nH]2)cc1` [losartan, Losartan, reference compound], the “Accumulation of laminin α2 in stria” value [1] is reported as “did not appear different from vehicle-treated Alport mice”, the “Hearing ability before noise exposure (ABR)” value ([2]; 7-8-week-old mice, sparsentan 120 mg/kg or losartan 20/10 mg/kg) is reported as “did not differ significantly” and the “Increase in strial capillary basement membrane width observed in vehicle-treated Alport mice” value ([2]; Alport mice treated 3-8.5 weeks of age with sparsentan or losartan) is reported as “prevented”. The “mean SCBM width±SD” value ([2]; Alport mice, losartan 20/10 mg/kg from 3 weeks of age, TEM, n=5) was 55.0±5.9 nm, the “Hearing loss after noise exposure vs vehicle-treated Alport mice” value ([2]; any frequency tested, losartan 20/10 mg/kg) was “no significant effect; also recorded: no significant difference” and the “Stria vascularis pathology by TEM” value ([2]; treated Alport mice, FIGS. 14-23) was “variable pathology”. The “Lifespan compared to vehicle-treated Alport mice” value [3] was “significantly longer; also recorded: significantly greater”, the UP/C ([4]; Alport mice, losartan 20/10 mg/kg from 3 wk, at 4 wk of age, mean ± SD, n = 8) was 0.6 ± 1.3 mg/mg and the UP/C ([4]; Alport mice, losartan 20/10 mg/kg, at 5 wk of age, mean ± SD) was 6.7 ± 4.0 mg/mg. For the same compound, the UP/C ([4]; Alport mice, losartan 20/10 mg/kg, at 6 wk of age, mean ± SD) was 11.2 ± 5.7 mg/mg, the BUN [4, 7] was 18.2 ± 3.5 mg/dL and the “Sclerotic Glomeruli (%)” value [4, 7] was 1.7 ± 3.3 %. The UP/C [4, 7] was 11.5 ± 7.0 mg/mg, the “Fibrosis Score” value ([4]; Alport mice, losartan 20/10 mg/kg, at 7 wk, score 0=<5% to 5=75-100% COL1 area, mean ± SD) was 0.0 ± 0.0 and the “Development of nephropathy in Alport mice” value ([4]; sparsentan 120 mg/kg 28 days or losartan 20 mg/kg 7 days then 10 mg/kg 21 days, from 3 weeks of age) was “prevented”. The “UP/C, BUN, glomerulosclerosis, and fibrosis vs. vehicle-treated Alport mice” value ([4]; sparsentan 120 mg/kg or losartan 20/10 mg/kg from 3 weeks of age, P<0.05) was “significant attenuation”, the TIF or glomerulosclerosis ([4]; sparsentan- or losartan-treated Alport mice, early intervention) was “little to no” and the UP/C ([5]; Alport mice late intervention, losartan 10 mg/kg for 14 days from 5 wk of age, mean ± SD, n = 8) was 18.1 ± 4.6 mg/mg. The BUN [5, 8] was 15.5 ± 3.4 mg/dL, the “GS (% Sclerotic glomeruli)” value [5, 8] was 16.0 ± 11.9*^$ % and the TIF ([5]; Alport mice late intervention, losartan 10 mg/kg, tubulointerstitial fibrosis score, mean ± SD) was 1.0 ± 1.2. For the same compound, the “UP/C and fibrosis vs. vehicle-treated Alport mice” value ([5]; losartan 10 mg/kg, late intervention) was “not significant”, the “Attenuation of BUN and glomerulosclerosis vs. vehicle-treated Alport mice” value ([5]; losartan 10 mg/kg, late intervention, P<0.05) was “significant” and the “Development of fibrosis, CD45^+ leucocyte infiltration, and glomerulosclerosis” value ([5]; sparsentan 120 mg/kg or losartan 10 mg/kg, 5-7 weeks of age) was “attenuated; also recorded: prevented”.

In the case of `CCOC(=O)[C@H](CCc1ccccc1)N[C@@H](C)C(=O)N1[C@H](C(=O)O)C[C@@H]2CCC[C@@H]21` [ramipril], the “Glomerulosclerosis and interstitial fibrosis in murine models of Alport syndrome” value [6] is given as “ameliorate”.

For `Cc1cc2c(cc1CC(=O)c1sccc1S(=O)(=O)Nc1onc(C)c1Cl)OCO2` [sitaxentan], the “Glomerulosclerosis and interstitial fibrosis in murine models of Alport syndrome” value [6] is given as “ameliorate” and the “Basement membrane in the cochlea of the ear in Alport mice” value ([6]; literature (Meehan et al. 2016)) is given as “protect”.
